Data: US9085536B2, “Aconitine compounds, compositions, uses, and preparation thereof” (priority 2011, dated 2015)
Entries after “also recorded” stand apart in the source; their conditions may differ. Like-named read-outs stand apart in the source and are kept apart here.

Assays:
[1] = target: T1, rNaV1.4 expressed in CHO cells (Rattus norvegicus, UniProt P15390); test: Na+ current block at steady state, whole-cell patch clamp with pulse trains; type: cell-based; conditions: for Current measured at 20 μM (%) / Current measured at 75 μM (%): before wash-off; for depolarizing pulses required to reach steady-state block: 10 Hz pulse trains
T1 construct: expressed in transfected cells; host or cells: CHO cells
Description: Binding of aconitine to NaV is use-dependent and is known to result both in a left shift of the current-voltage (I-V) relationship and in partial block of the channel. […] To determine whether aconitine binding is reversible, two experiments were designed. First, as block by aconitine is known to be use dependent, peak current was measured as a function of pulse number in the presence of two different concentrations of aconitine. Since aconitine binds preferentially to the open state of the sodium channel, a pulse train was applied sequentially with a control pulse used to record peak current. The pulse train consisted of a series of 50 depolarizing pulses (from −100 mV holding potential to 0 mV, 10 ms duration) applied at 10 Hz frequency, while the control pulse consisted of a single depolarizing pulse (from −100 mV holding potential to 0 mV test potential, 10 ms duration).
Pulse trains of 10 Hz frequency and control pulses were applied sequentially to cells expressing rNaV1.4, and currents elicited from the control pulse were recorded after each pulse train. This process was repeated until the current elicited from the control pulse had reached a steady state and was no longer decreasing with each additional pulse train. If block were irreversible, this steady state current would be expected to be independent of toxin concentration—the toxin would not be able to dissociate from its receptor, and the number of toxin molecules is much greater than the number of sodium channels (assuming a 100 μL chamber containing 1000 CHO cells, each expressing 10,000 sodium channels, at 50 μM concentration toxin molecules outnumber receptors by a factor of 3×10^8:1), therefore, all receptors would eventually reach the bound state.
Block by aconitine is known to be use-dependent, therefore the use-dependence of the C14 derivatives of aconitine was evaluated. Peak Na current was measured as a function of pulse number in the presence of different concentrations of the molecules. […] Since aconitine binds preferentially to the open state of the sodium channel, a pulse train was applied sequentially with a control pulse used to record peak current. The pulse train consisted of a series of 50 depolarizing pulses (from −100 mV holding potential to 0 mV, 10 ms duration) applied at 10 Hz frequency, while the control pulse consisted of a single depolarizing pulse (from −100 mV holding potential to 0 mV test potential, 10 ms duration).
Pulse trains of 10 Hz frequency and control pulses were applied sequentially to CHO cells expressing rNaV1.4, and currents elicited from the control pulse were recorded after each pulse train. This process was repeated until the current elicited from the control pulse had reached a steady state and was no longer decreasing with each additional pulse train. If block were irreversible, this steady state current would be expected to be independent of toxin concentration—the toxin would not be able to dissociate from its receptor, and the number of toxin molecules is much greater than the number of sodium channels, therefore, all receptors would eventually reach the bound state.
The ability of the synthesized aconitine derivatives to block NaV channels was evaluated with patch-clamp experiments in the whole-cell configuration on CHO cells expressing rNaV1.4 heterologously. A buffer solution containing the toxin was applied to the cells, whole-cell Na^+ currents were recorded until the decreasing current reached a steady-state (300 to 3000 pulses, depending on the molecules and concentrations). The peak Na^+ currents were measured with a depolarizing test pulse (from −100 mV holding potential to 0 mV test potential, 10 ms duration).

[2] = target: T1, rNaV1.4 expressed in CHO cells; test: Activation: current-voltage (I-V) and conductance-voltage (G-V) relationship, whole-cell recording; type: cell-based
Description: To determine if the shift in I-V relationship is affected by the aromaticity of the aconitine C14 benzoate, current-voltage relationships were recorded for control cells expressing NaV, those that had been modified by aconitine, and those that had been modified by aconitine C14-cyclohexanoate 4.8d. For the modified channels, solutions of 50 μM concentration of the respective toxins were perfused onto the cells, and then depolarizing pulses were applied until a steady state current was observed, generally requiring about 1000 pulses. At that time, current-voltage relationships were again recorded. […] A shift towards hyperpolarizing potentials is clearly observed in both cases. Currents recorded at −50 mV are highlighted for all three experiments.
To determine the effect on current-voltage (I-V) relationship of the aconitine derivatives, whole cell currents were recorded in cells expressing NaV in the presence of aconitine derivatives. Control I-V plots were recorded with unmodified NaV1.4, to which were compared NaV channels modified by aconitine as well as by selected analogs. For the modified channels, solutions of the respective toxins were perfused onto the cells, and then depolarizing pulses were applied until a steady state current was observed, generally requiring about 1000 pulses. A sequence of test pulses was then recorded to determine the current-voltage relationships (using a step protocol in which CHO cells were depolarized for 10 ms from a holding potential of −100 mV to a range of potentials from −95 mV to +30 mV in 5 or 10 mV increments; peak currents were normalized to the maximum peak current and plotted against voltage).

[3] = target: T1, rNaV1.4 expressed in CHO cells; type: cell-based; conditions: for reversibility of binding upon wash-off: wash-off experiments, Table 3 concentrations
Description: […] […] It is noteworthy that little or no increase in current was observed during wash off when no depolarizing pulses were applied and peak current was measured as a function of time.
Since the molecules bind to the open-state of the Nav channel their release also requires activation pulses. In typical experiments, buffered external solution was perfused and a pulse train sequence was applied to the patch-clamp until the current reached a steady-state for at least two minutes.

[4] = target: T1, rNaV1.4 expressed in CHO cells; test: Steady-state inactivation, whole-cell recording, Boltzmann fit; type: cell-based
Description: . The channels were modified by perfusing the cells with buffered solution containing aconitine at the given concentrations and then simple pulses (10 ms pulses to 0 mV from −100 mV holding potential) were recorded until the currents leveled to a steady value (typically ˜1000 pulses). Steady-state fast inactivation of the current was then determined by delivering 500 ms conditioning pulses to potentials ranging from −130 to −11 mV (7 my increments) immediately followed by a 10 ms test pulse to 0 mV to test the available current. The peak current measured during the test pulse was normalized to the maximum peak current recorded in the conditioning pulses. […] Midpoint voltage V0.5 represents the membrane potential at which half maximum current is observed; slope factor at midpoint k quantifies the rate at which the inactivation response occurs.

NaV1.8 = NaV1.8 (Homo sapiens, UniProt Q9Y5Y9); conditions: cited from earlier work
NaV1.2 = NaV1.2 (Homo sapiens, UniProt Q99250); conditions: cited from earlier work
Sequence of NaV1.2 (Q99250 whole entry, looked up): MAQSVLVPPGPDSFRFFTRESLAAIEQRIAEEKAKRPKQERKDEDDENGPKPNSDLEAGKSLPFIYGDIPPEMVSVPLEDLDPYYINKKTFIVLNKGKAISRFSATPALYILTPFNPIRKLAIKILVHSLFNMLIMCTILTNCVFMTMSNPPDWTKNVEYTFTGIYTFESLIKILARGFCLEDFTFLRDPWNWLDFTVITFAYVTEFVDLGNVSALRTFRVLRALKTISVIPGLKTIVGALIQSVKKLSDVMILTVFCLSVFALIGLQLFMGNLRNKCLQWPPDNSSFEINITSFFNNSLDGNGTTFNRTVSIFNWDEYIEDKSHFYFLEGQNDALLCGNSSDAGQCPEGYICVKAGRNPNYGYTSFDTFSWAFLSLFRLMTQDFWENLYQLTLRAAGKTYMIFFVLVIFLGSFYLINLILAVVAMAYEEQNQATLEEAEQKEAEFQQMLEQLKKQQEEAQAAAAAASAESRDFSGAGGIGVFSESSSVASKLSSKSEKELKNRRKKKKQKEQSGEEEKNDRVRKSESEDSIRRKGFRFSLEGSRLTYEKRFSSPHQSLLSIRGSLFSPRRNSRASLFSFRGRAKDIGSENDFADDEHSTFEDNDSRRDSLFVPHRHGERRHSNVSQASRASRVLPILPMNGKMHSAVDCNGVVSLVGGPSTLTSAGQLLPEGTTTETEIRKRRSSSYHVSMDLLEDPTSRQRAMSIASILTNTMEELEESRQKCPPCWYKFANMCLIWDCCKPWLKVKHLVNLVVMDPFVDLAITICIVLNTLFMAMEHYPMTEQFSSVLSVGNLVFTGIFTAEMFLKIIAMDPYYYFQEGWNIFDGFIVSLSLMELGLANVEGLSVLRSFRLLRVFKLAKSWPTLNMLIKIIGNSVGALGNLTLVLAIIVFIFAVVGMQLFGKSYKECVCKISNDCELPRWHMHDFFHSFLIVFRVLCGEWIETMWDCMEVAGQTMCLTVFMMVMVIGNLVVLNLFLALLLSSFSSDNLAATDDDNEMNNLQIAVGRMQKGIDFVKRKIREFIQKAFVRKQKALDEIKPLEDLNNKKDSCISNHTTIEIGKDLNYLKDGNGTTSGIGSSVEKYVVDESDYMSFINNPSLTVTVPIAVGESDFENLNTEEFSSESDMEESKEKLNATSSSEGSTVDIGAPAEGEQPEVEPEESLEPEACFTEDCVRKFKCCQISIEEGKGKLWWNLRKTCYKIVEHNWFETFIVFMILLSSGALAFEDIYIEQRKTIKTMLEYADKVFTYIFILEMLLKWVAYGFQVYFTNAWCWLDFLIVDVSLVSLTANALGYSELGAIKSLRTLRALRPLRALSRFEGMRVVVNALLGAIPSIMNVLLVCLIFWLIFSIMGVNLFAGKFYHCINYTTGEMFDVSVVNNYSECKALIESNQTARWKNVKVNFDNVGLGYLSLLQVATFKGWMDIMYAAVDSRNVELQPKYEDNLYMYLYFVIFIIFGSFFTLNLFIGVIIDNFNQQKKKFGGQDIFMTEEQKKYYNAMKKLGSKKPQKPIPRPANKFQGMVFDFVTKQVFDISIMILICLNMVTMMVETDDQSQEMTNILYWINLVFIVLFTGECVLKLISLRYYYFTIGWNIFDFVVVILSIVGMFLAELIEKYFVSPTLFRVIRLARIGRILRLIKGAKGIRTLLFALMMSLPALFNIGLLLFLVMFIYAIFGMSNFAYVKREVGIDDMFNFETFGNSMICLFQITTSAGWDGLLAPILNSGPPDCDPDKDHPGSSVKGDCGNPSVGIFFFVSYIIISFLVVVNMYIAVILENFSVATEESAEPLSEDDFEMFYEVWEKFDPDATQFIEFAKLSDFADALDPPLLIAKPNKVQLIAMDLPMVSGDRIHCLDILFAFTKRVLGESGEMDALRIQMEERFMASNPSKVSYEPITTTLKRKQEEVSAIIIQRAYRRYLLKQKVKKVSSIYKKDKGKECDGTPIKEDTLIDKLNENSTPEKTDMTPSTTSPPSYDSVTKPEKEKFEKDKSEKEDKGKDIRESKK

T1 sequence (P15390 whole entry): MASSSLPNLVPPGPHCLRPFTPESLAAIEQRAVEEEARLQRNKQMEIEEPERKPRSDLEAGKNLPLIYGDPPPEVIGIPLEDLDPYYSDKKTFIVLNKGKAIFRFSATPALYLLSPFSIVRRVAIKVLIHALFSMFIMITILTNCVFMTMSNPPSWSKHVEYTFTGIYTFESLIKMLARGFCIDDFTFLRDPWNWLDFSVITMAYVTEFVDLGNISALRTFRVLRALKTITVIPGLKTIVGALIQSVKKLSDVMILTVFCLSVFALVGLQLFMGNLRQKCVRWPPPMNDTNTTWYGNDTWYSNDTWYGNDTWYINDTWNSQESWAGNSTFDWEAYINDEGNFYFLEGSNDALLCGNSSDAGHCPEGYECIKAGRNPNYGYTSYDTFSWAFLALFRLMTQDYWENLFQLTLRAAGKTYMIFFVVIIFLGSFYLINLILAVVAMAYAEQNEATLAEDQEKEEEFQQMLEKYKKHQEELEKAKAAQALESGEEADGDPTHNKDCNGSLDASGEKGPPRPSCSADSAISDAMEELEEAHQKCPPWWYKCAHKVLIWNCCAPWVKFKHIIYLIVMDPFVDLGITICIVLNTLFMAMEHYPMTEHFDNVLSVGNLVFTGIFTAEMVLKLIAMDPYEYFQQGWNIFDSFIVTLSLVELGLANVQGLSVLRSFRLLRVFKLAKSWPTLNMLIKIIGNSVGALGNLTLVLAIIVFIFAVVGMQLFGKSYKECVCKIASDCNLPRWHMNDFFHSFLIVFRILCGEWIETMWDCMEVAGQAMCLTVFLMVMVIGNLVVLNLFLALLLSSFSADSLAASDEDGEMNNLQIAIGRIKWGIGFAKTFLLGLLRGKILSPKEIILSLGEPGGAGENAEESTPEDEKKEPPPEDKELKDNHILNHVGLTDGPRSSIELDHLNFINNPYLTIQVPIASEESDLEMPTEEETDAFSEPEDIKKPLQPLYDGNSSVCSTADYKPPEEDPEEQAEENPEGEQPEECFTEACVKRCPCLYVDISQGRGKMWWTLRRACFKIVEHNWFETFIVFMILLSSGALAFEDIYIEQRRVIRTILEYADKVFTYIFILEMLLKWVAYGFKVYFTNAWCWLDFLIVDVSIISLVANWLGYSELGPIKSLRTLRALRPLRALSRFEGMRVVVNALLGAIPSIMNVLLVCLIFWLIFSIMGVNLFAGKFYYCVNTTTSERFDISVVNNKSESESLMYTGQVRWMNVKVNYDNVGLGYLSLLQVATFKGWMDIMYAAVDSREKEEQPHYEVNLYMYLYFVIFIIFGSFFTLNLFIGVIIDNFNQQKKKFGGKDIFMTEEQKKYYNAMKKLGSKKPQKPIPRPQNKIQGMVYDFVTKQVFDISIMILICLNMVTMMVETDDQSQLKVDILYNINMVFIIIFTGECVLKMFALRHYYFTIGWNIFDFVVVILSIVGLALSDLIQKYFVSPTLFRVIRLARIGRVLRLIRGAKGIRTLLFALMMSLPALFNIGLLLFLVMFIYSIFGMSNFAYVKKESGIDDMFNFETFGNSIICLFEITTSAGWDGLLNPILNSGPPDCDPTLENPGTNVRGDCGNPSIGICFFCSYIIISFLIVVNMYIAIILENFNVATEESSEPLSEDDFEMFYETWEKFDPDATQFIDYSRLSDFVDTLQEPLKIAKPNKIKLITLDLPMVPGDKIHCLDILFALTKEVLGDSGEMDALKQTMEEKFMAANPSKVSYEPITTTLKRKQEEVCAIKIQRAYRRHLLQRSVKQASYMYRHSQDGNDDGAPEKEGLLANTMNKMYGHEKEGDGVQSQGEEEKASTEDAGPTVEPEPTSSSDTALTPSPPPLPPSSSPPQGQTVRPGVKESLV

CCN1CC2(COC)C3C(OC)C4C1C3(C1C[C@@]3(O)[C@H](OC(=O)c5ccccc5N=[N+]=[N-])[C@@H]1[C@]4(OC(C)=O)[C@@H](O)[C@@H]3OC)[C@@H](OC)C[C@H]2O (stereo partly drawn) [4.8f]
% Remaining current after reaching steady-state binding ([1]; 50 μM): 22%

CCN1CC2(COC)C3[C@H](OC)C4C1C3(C1C[C@@]3(O)[C@H](OC(=O)c5cc6ccccc6oc5=O)C1[C@]4(OC(C)=O)[C@@H](O)[C@@H]3OC)[C@@H](OC)C[C@H]2O (stereo partly drawn) [4.8g]
concentration required to achieve the current levels observed with 20 μM aconitine [1]: 75 µM | % Remaining current after reaching steady-state binding ([1]; 20 μM): 79% | peak current blocked at steady state ([1]; 20 μM): 21% | Current measured at 20 μM (%) ([1]; 20 μM): 79% | depolarizing pulses required to reach steady-state block ([1]; 20 μM): over 2500 pulses | % Remaining current after reaching steady-state binding ([1]; 75 μM): 23% | peak current blocked at steady state ([1]; 75 μM): 77% | Current measured at 75 μM (%) ([1]; 75 μM): 23% | depolarizing pulses required to reach steady-state block ([1]; 75 μM): over 3000 pulses | Activation V0.5 (mV) ([2]; 75 μM): −36 mV | Activation hg ([2]; 75 μM): 8.9 | Current after wash-off (%) ([3]; after wash-off of 20 μM): 83% | Current after wash-off (%) ([3]; after wash-off of 75 μM): 31% | reversibility of binding upon wash-off [3]: did not restore substantial current | Steady-state inactivation V0.5 (mV) ([4]; 75 μM): −75.6 mV | Steady-state inactivation k (slope factor at midpoint) ([4]; 75 μM): 11.6 | steady-state inactivation V0.5 ([4]; concentration not given): −76 mV | shift of steady-state inactivation V0.5 compared to the unmodified NaV channel ([4]; toward hyperpolarized potentials, concentration not given): 23 mV

CCN1CC2(COC)C3C(OC)C4C1C3(C1C[C@@]3(O)[C@H](OC(=O)c5ccc6ccccc6c5)[C@@H]1[C@]4(OC(C)=O)[C@@H](O)[C@@H]3OC)[C@@H](OC)C[C@H]2O (stereo partly drawn) [4.8c]
% Remaining current after reaching steady-state binding ([1]; 5 μM): 38% | % Remaining current after reaching steady-state binding ([1]; 20 μM): 5% | peak current blocked at steady state ([1]; 20 μM): around 95% | Current measured at 20 μM (%) ([1]; 20 μM): 3% | depolarizing pulses required to reach steady-state block ([1]; 20 μM): 800 pulses | peak current blocked at steady state ([1]; 73 μM): over 97% | Current measured at 75 μM (%) ([1]; 73 μM (footnote b)): 3^b % | % Remaining current after reaching steady-state binding ([1]; 73 μM (footnote c, 75 μM column)): 3^c % | depolarizing pulses required to reach steady-state block ([1]; 73 μM): ≤ 300 pulses | % Remaining current after reaching steady-state binding ([1]; 200 μM): 3% | current observed at steady state ([1]; concentrations of 20 μM and above): ≤ 5% | Activation V0.5 (mV) ([2]; 5 μM): −23.1 mV | Activation hg ([2]; 5 μM): 13.1 | Current after wash-off (%) ([3]; after wash-off of 20 μM): 4% | Current after wash-off (%) ([3]; after wash-off of 73 μM (footnote b)): 3^b % | reversibility of binding upon wash-off [3]: did not restore substantial current; also recorded: completely irreversible

NC1=N[C@H](O)[C@H]2[C@H]3O[C@]4(O)O[C@@H]([C@@H](O)[C@@]2(N1)[C@@H]4O)[C@]3(O)CO [TTX, tetrodotoxin]
TTX potency (NaV1.8): 60 µM | TTX potency (NaV1.2): 0.012 µM

CCN1CC2(COC)C3C(OC)C4C1C3(C1C[C@@]3(O)[C@H](OC(=O)C5CCCCC5)[C@@H]1[C@]4(OC(C)=O)[C@@H](O)[C@@H]3OC)[C@@H](OC)C[C@H]2O (stereo partly drawn) [4.8d]
% Remaining current after reaching steady-state binding ([1]; 5 μM): 82% | peak current blocked at steady state ([1]; 20 μM): 85% | depolarizing pulses required to reach steady-state block ([1]; 20 μM): around 600 pulses | Current measured at 20 μM (%) ([1]; 21 μM (footnote c)): 15^c % | % Remaining current after reaching steady-state binding ([1]; 50 μM): 10% | peak current blocked at steady state ([1]; 50 μM): 90% | depolarizing pulses required to reach steady-state block ([1]; 50 μM): Approximately 1000 pulses | % Remaining current after reaching steady-state binding ([1]; 200 μM): 6% | peak current blocked at steady state ([1]; 200 μM): 94% | depolarizing pulses required to reach steady-state block ([1]; 200 μM): 200 pulses | shift of voltage of half-activation (V0.5) towards the hypo-polarization [2]: more than 20 mV | effect on activation threshold ([2]; 20 μM): did not significantly shift the activation threshold | hypopolarized shift of potential of maximum current ([2]; 20 μM): 10 mV | membrane potential at which maximum current is observed ([2]; 20 μM): 0 mV | Activation V0.5 (mV) ([2]; 21 μM): 1.3 mV | Activation hg ([2]; 21 μM): 15.4 | current at −50 mV ([2]; 50 μM, after about 1000 pulses, no current in control cells): substantial currents; also recorded: more pronounced effect in this respect than the natural product | Current after wash-off (%) ([3]; after wash-off of 20 μM): 79% | Current after wash-off (%) ([3]; after wash-off of 21 μM (footnote c)): 79^c % | effect on threshold for inactivation ([4]; 20 μM): shifted the threshold for inactivation towards higher potentials | Steady-state inactivation V0.5 (mV) ([4]; 21 μM): −53.1 mV | Steady-state inactivation k (slope factor at midpoint) ([4]; 21 μM): 8.1 | slope factor k of steady-state inactivation ([4]; concentration not given, unmodified ˜6): ~8
